Assay results published in patent US7727960B2, “C5a receptor antagonists” (Jerini AG, priority 2003, dated 2010).
Like-named read-outs stand apart in the source and are kept apart here. Starred links: 1 amine or outer side, 2 acyl side, 3 side chain; linkers in the order of their positions; H or OH if unused. Positions of bridges follow the written chain, without caps; N, C: chain ends. Non-standard residues stand in square brackets, D forms with d. Residues, ends and D or L forms follow the SMILES beside them. No end group written: not given here. *: point of attachment. X2 = COC1O[C@H](C(=O)[*:2])[C@@H](O)[C@H](O)[C@H]1N[*:1]; Phe(4-NH2) = Nc1ccc(C[C@H](N)C(=O)O)cc1; Bta = N[C@@H](Cc1csc2ccccc12)C(=O)O; Hydrocinnamoyl = O=C(CCc1ccccc1)*; Hyp = O=C(O)[C@@H]1C[C@@H](O)CN1; 2Thi = N[C@@H](Cc1cccs1)C(=O)O; Cha = N[C@@H](CC1CCCCC1)C(=O)O; dCha = N[C@H](CC1CCCCC1)C(=O)O; AllylGly = C=CC[C@H](N)C(=O)O; Pip = O=C(O)[C@@H]1CCCCN1; Nle = CCCC[C@H](N)C(=O)O; Orn = NCCC[C@H](N)C(=O)O; Aze = O=C(O)[C@@H]1CCN1

Columns and labels:
[1] = Solubility determination for selected C5aR-antagonists; format: physicochemical; conditions: for Solubility in 20 mM HEPES pH 7.4: 20 mM HEPES pH 7.4, 24 h at RT; for solubility: aqueous HEPES buffer (pH 7.4)
Method: Solubility of compounds was determined by the following procedure: 20 μl of a 10 mM stock solution (in DMSO) of the compound were diluted in 980 μl of the solvent to be tested. After incubation for 24 h at RT under shaking the samples are centrifuged at 11.000 rpm in an Eppendorf centrifuge. The supematant is determined by photometry. […] Therefor the compound was suspended at 10 mg/ml in the solvent systems of choice. The undissolved part was removed by centrifugation after 24 h. The UV-absorption of the supernatant was measured and compared to a respective reference value 60% MeOH).

[2] = biological target: T1, human C5aR (CD88) (Homo sapiens, UniProt P21730); assay: Determination of the IC50 value in an enzyme release assay (functional assay, antagonistic activity); format: cell-based; conditions: for IC50-value compared to compound 40 (in words): arginine replaced by hydrophobic substitutions
T1 construct: expressed in transfected cells; host or cells: rat basophilic leukemia cells (RBL)
T1 sequence (P21730 1-350): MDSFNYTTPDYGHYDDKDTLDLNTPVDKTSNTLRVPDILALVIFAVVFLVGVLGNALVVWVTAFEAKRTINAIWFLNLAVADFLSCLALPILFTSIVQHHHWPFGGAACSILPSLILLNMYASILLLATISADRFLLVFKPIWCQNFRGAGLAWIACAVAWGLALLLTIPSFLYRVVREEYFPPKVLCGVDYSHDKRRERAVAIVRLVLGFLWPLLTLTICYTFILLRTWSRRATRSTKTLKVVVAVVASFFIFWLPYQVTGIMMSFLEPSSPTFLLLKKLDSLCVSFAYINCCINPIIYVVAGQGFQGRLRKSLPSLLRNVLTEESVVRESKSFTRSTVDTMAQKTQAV

[3] = biological target: T1, human C5aR (CD88); assay: Determination of EC50 values in an enzyme release assay (agonistic activity, no C5a added); format: cell-based; conditions: for agonistic activity (in words): cellular assay, up to a concentration of at least 1430 nM
Method: The determination of the EC50 value was performed in a way similar to the procedure described in example 11, with the only exception that 30 μl of the compound to be tested were mixed with 75 μl of the cell suspension described in example 11. There was no preincubation or addition of C5a for stimulation of the enzyme release.

[4] = biological target: T2, human C5aR (CD88) (human, UniProt P21730 1-350); assay: cell-based or functional assay
T2 sequence (looked up): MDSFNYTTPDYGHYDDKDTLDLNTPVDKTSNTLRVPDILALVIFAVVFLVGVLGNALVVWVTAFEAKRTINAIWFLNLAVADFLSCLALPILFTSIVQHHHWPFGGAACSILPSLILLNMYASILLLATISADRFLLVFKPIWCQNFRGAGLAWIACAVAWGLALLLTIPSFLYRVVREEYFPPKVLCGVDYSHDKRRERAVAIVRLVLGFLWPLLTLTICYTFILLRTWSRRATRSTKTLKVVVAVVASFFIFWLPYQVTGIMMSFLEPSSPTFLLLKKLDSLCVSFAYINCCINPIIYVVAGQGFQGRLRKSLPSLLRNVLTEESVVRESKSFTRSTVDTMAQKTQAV

[5] = biological target: T2, human C5aR (CD88); assay: cell-based or functional assay; remark: listed apart in the source
[6] = noteworthy = IC50 of less than 200 nM in the functional assay

Molecule: CCCC[C@@H]1NC(=O)[C@H](Cc2c[nH]c3ccccc23)NC(=O)[C@@H](CC2CCCCC2)NC(=O)[C@@H]2CCCN2C(=O)[C@@H](NC(=O)[C@H](Cc2ccccc2)NC(C)=O)CCCNC1=O [Compound 28, Ac-Phe-[Orn-Pro-cha-Trp-Nle]] (Ac-F[Orn]P[dCha]W[Nle]; lactam 2-C)
- Solubility in 20 mM HEPES pH 7.4 [1]: 22 % of 200 μM
- solubility [1]: 22%
- IC50-value compared to compound 40 (in words) [2]: without a significant increase of the IC50-value
- inhibitory activity (in words) [2, 6]: noteworthy inhibitory activity

Molecule: CCCC[C@@H]1NC(=O)[C@H](Cc2c[nH]c3ccccc23)NC(=O)[C@@H](CC2CCCCC2)NC(=O)[C@@H]2CCCN2C(=O)[C@@H](NC(=O)[C@H](Cc2ccccc2)NC(=O)[C@H]2OC(OC)[C@H](NC(C)=O)[C@@H](O)[C@@H]2O)CCCNC1=O (stereo partly drawn) [Compound 4, X-Phe-[Orn-Pro-cha-Trp-Nle]; X = 2-acetamido-1-methyl-glucuronyl] (Ac-[X2]F[Orn]P[dCha]W[Nle]; lactam 3-C)
- Solubility in 20 mM HEPES pH 7.4 [1]: 84 % of 200 μM
- solubility [1]: 84%

Molecule: CC(=O)N[C@@H](Cc1ccccc1)C(=O)N[C@H]1CCCNC(=O)[C@H](Cc2ccccc2)NC(=O)[C@H](Cc2c[nH]c3ccccc23)NC(=O)[C@@H](CC2CCCCC2)NC(=O)[C@@H]2C[C@@H](O)CN2C1=O [Compound 2, Ac-Phe-[Orn-Hyp-cha-Trp-Phe]] (Ac-F[Orn][Hyp][dCha]WF; lactam 2-C)
- Solubility in 20 mM HEPES pH 7.4 [1]: 13 % of 200 μM
- solubility [1]: 13%
- inhibitory activity (in words) [2]: noteworthy inhibitory activity
- agonistic activity (in words) [3]: pure antagonists

Molecule: CCCC[C@@H]1NC(=O)[C@H](Cc2c[nH]c3ccccc23)NC(=O)[C@@H](CC2CCCCC2)NC(=O)[C@@H]2CCCN2C(=O)[C@@H](NC(=O)[C@H](Cc2ccccc2)NC(=O)[C@H](CCCCN)NC(C)=O)CCCNC1=O [Compound 43, Ac-Lys-Phe-[Orn-Pro-cha-Trp-Nle]] (Ac-KF[Orn]P[dCha]W[Nle]; lactam 3-C)
- Solubility in 20 mM HEPES pH 7.4 [1]: 93 % of 200 μM
- inhibitory activity (in words) [2, 6]: noteworthy inhibitory activity
- agonistic activity (in words) [3]: pure antagonists

Molecule: CCCC[C@@H]1NC(=O)[C@H](Cc2c[nH]c3ccccc23)NC(=O)[C@@H](CC2CCCCC2)NC(=O)[C@@H]2CCCN2C(=O)[C@@H](NC(=O)CCc2ccccc2)CCCNC1=O [Compound 41, Ph—CH2—CH2—CO-[Orn-Pro-cha-Trp-Nle]] (Hydrocinnamoyl-[Orn]P[dCha]W[Nle]; lactam 1-C)
- inhibitory activity (in words) [2, 6]: noteworthy inhibitory activity
- agonistic activity (in words) [3]: pure antagonists

Molecule: CCCC[C@@H]1NC(=O)[C@H](Cc2c[nH]c3ccccc23)NC(=O)[C@@H](CC2CCCCC2)NC(=O)[C@@H]2CCCN2C(=O)[C@@H](NC(=O)[C@@H](N)Cc2ccccc2)CCCNC1=O [Compound 42, H-Phe-[Orn-Pro-cha-Trp-Nle]] (H-F[Orn]P[dCha]W[Nle]; lactam 2-C)
- Solubility in 20 mM HEPES pH 7.4 [1]: 45 % of 200 μM
- inhibitory activity (in words) [2, 6]: noteworthy inhibitory activity
- agonistic activity (in words) [3]: pure antagonists

Molecule: C=CC[C@@H]1NC(=O)[C@H](Cc2c[nH]c3ccccc23)NC(=O)[C@@H](CC2CCCCC2)NC(=O)[C@@H]2CCCN2C(=O)[C@@H](NC(=O)[C@H](Cc2ccccc2)NC(C)=O)CCCNC1=O [Compound 33, Ac-Phe-[Orn-Pro-cha-Trp-Eaf]] (Ac-F[Orn]P[dCha]W[AllylGly]; lactam 2-C)
- IC50-value compared to compound 40 (in words) [2]: without a significant increase of the IC50-value
- inhibitory activity (in words) [2, 6]: noteworthy inhibitory activity
- agonistic activity (in words) [3]: pure antagonists

Molecule: CC(=O)N[C@@H](Cc1cccs1)C(=O)N[C@@H](CCCN)C(=O)N1CCCC[C@H]1C(=O)N[C@H](CC1CCCCC1)C(=O)N[C@@H](Cc1csc2ccccc12)C(=O)N[C@@H](Cc1ccccc1)C(N)=O [Compound 67, Ac-Thi-Orn-Pip-cha-Bta-Phe-NH2] (Ac-[2Thi][Orn][Pip][dCha][Bta]F-NH2)
- agonistic activity (in words) [3]: pure antagonists

Molecule: CC(=O)N[C@@H](Cc1ccccc1)C(=O)N[C@H]1CCCNC(=O)[C@H](CCCNC(=N)N)NC(=O)[C@H](Cc2c[nH]c3ccccc23)NC(=O)[C@@H](CC2CCCCC2)NC(=O)[C@@H]2CCCN2C1=O [Compound 40, Ac-Phe-[Orn-Pro-cha-Trp-Arg], reference compound]
- Solubility in 20 mM HEPES pH 7.4 [1]: 94 % of 200 μM
- solubility [1]: 94%

Molecule: CC(=O)N[C@@H](Cc1ccccc1)C(=O)N[C@@H](CCCN)C(=O)N1CC[C@H]1C(=O)N[C@H](CC1CCCCC1)C(=O)N[C@@H](Cc1c[nH]c2ccccc12)C(=O)N[C@@H](Cc1ccccc1)C(N)=O [Compound 83, Ac-Phe-Orn-Aze-cha-Trp-Phe-NH2] (Ac-F[Orn][Aze][dCha]WF-NH2)
- agonistic activity (in words) [3]: pure antagonists

Molecule: CC(=O)N[C@@H](Cc1ccccc1)C(=O)N[C@@H](CCCN)C(=O)N1CCC[C@H]1C(=O)N[C@H](CC1CCCCC1)C(=O)N[C@@H](Cc1csc2ccccc12)C(=O)N[C@@H](Cc1ccccc1)C(N)=O [Compound 62, Ac-Phe-Orn-Pro-cha-Bta-Phe-NH2] (Ac-F[Orn]P[dCha][Bta]F-NH2)
- agonistic activity (in words) [3]: pure antagonists

Molecule: CC(=O)N[C@@H](Cc1ccccc1)C(=O)N[C@H]1CCCNC(=O)[C@H](Cc2ccccc2)NC(=O)[C@H](Cc2c[nH]c3ccccc23)NC(=O)[C@@H](CC2CCCCC2)NC(=O)[C@@H]2CCCN2C1=O [Compound 1, Ac-Phe-[Orn-Pro-cha-Trp-Phe]] (Ac-F[Orn]P[dCha]WF; lactam 2-C)
- Solubility in 20 mM HEPES pH 7.4 [1]: 8 % of 200 μM
- solubility [1]: 8%
- IC50-value compared to compound 40 (in words) [2]: without a significant increase of the IC50-value
- inhibitory activity (in words) [2, 6]: noteworthy inhibitory activity
- agonistic activity (in words) [3]: pure antagonists

B1: Ac-Phe-[Orn-Pro-cha-Trp-Ala] (peptide)
peptide: Ac-F[Orn]P[dCha]WA
modifications: lactam (positions not given here); not fully specified (bridges); printed as Ac-Phe-[Orn-Pro-cha-Trp-Ala]
- IC50, functional assay [4]: 5600 nM
- IC50 activity group, enzyme release assay [5]: > 2000 nM

B2: Ac-Phe-[Orn-Pro-cha-Ala-Arg] (peptide)
peptide: Ac-F[Orn]P[dCha]AR
modifications: lactam (positions not given here); not fully specified (bridges); printed as Ac-Phe-[Orn-Pro-cha-Ala-Arg]
- IC50, functional assay [4]: > 30000 nM
- IC50 activity group, enzyme release assay [5]: > 2000 nM

B3: Ac-Phe-Lys-Ala-Cha-Ala-Leu-ala-Tyr-OH (peptide)
peptide: Ac-FKA[Cha]AL[dA]Y-OH
SMILES: CC(=O)N[C@@H](Cc1ccccc1)C(=O)N[C@@H](CCCCN)C(=O)N[C@@H](C)C(=O)N[C@@H](CC1CCCCC1)C(=O)N[C@@H](C)C(=O)N[C@@H](CC(C)C)C(=O)N[C@H](C)C(=O)N[C@@H](Cc1ccc(O)cc1)C(=O)O
- IC50, functional assay as used in this application [4]: 1300 nM
- IC50 activity group, enzyme release assay [5]: ≤ 2000 nM

B4: Ac-Phe-[Orn-Pro-ala-Trp-Arg] (peptide)
peptide: Ac-F[Orn]P[dA]WR
modifications: lactam (positions not given here); not fully specified (bridges); printed as Ac-Phe-[Orn-Pro-ala-Trp-Arg]
- IC50, functional assay [4]: > 30000 nM
- IC50 activity group, enzyme release assay [5]: > 2000 nM

B5: hrC5a: hrC5a (Sigma) used for stimulation of the enzyme release; agonist control in Table 5 (protein)
chain: TLQKKIEEIAAKYKHSVVKKCCYDGACVNNDETCEQRAARISLGPRCIKAFTECCVVASQLRANISHKDMQLGR
- EC50 ([3]; agonistic activity, no preincubation or addition of C5a): 2.4 nM

B6: Ac-Ala-[Orn-Pro-cha-Trp-Arg] (peptide)
peptide: Ac-A[Orn]P[dCha]WR
modifications: lactam 2-C
SMILES: CC(=O)N[C@@H](C)C(=O)N[C@H]1CCCNC(=O)[C@H](CCCNC(=N)N)NC(=O)[C@H](Cc2c[nH]c3ccccc23)NC(=O)[C@@H](CC2CCCCC2)NC(=O)[C@@H]2CCCN2C1=O
- IC50, functional assay [4]: > 30000 nM
- IC50 activity group, enzyme release assay [5]: > 2000 nM

B7: Ac-Phe-[Orn-Pro-cha-Trp-Paf] (peptide)
peptide: Ac-F[Orn]P[dCha]W[Phe(4-NH2)]
modifications: lactam (positions not given here); not fully specified (bridges); printed as Ac-Phe-[Orn-Pro-cha-Trp-Paf]
- IC50, enzyme release assay [4]: 30 nM
- IC50 activity group, enzyme release assay [5]: ≤ 50 nM

B8: Ac-Phe-[Orn-Pro-cha-Trp-Lys] (peptide)
peptide: Ac-F[Orn]P[dCha]WK
modifications: lactam (positions not given here); not fully specified (bridges); printed as Ac-Phe-[Orn-Pro-cha-Trp-Lys]
- IC50, enzyme release assay [4]: 8700 nM
- IC50 activity group, enzyme release assay [5]: > 2000 nM
